“And” between values parts separate entries of the source, which are not always exact repeats. Identical values can stand only once. Like-named read-outs stand apart in the source and are kept apart here.
Experiments:
SW1463 = assay: Combination 4 day growth assay (Cell TiterGlo), SW1463; format: cell-based; details: Homo sapiens, single treatment, read-out: Absolute IC50
Protocol: (§1) Cell lines for this study are obtained from ATCC and grown under ATCC recommended conditions, except for LXFA-983L, which is obtained from Oncotest/Charles Rivers Laboratories, Wilmington, Mass. and D122-96, which is obtained from L. Eisenbach (Weizman Institute of Science, Rehovot, Israel)—both grown under recommended conditions. […] The proliferation assay is performed as a 4 day growth assay using Cell TiterGlo® as the readout. Briefly, cells are plated in 96-well cell culture plates and allowed to adhere overnight at 37° C. The following day, cells are treated with compounds, either single treatments or combination treatments. First, the testing compounds are serially diluted in DMSO, followed by dilution into media as a 5× concentration with 1% DMSO, and finally added to cells in media to dilute to 1×. The cells are incubated at 37° C. for 4 more days. At the end of the incubation period, Cell TiterGlo® reagent is mixed and added to the wells. After 10 minutes, the luminescence is read by a Perkin Elmer Envision instrument. Absolute IC50 values generated by a 4-parameter logistics model for the single and combination treatments are generated, followed by combination indexes for each combination treatment and cell line. The combination IC50 values are adjusted based on the total concentration of each compound when added together. […] The combination index (CI) measures the degree to which the potency of a combination therapy differs from the expected-if-additive potency and is based on the Loewe definition of additivity.
(§2) [formula] Where • CAy and CBy are the concentrations of therapies A and B that produce an effect, y, when given in combination • ICAy and ICBy are the concentrations of A and B that produce an effect, y, when given individually The biological interpretation of the combination index is as follows: synergistic if the combination index <0.5, additive if the combination index is between 0.5 and 2, and antagonistic if the combination index is >2.

Calu-1 = assay: Combination 4 day growth assay (Cell TiterGlo), Calu-1; format: cell-based; details: Homo sapiens, single treatment, read-out: Absolute IC50
Protocol: as §1, §2

MIA Paca-2 = assay: Combination 4 day growth assay (Cell TiterGlo), MIA Paca-2; format: cell-based; details: Homo sapiens, single treatment, read-out: Absolute IC50
Protocol: as §1, §2

H358 = assay: Combination 4 day growth assay (Cell TiterGlo), H358; format: cell-based; details: Homo sapiens, NCI-H358, 96 h, single treatment, read-out: Absolute IC50
Protocol: as §1, §2

SW837 = assay: Combination 4 day growth assay (Cell TiterGlo), SW837; format: cell-based; details: Homo sapiens, single treatment, read-out: Absolute IC50
Protocol: as §1, §2

D122-96 = assay: Combination 4 day growth assay (Cell TiterGlo), D122-96; format: cell-based; details: Mus musculus, 96 h, single treatment, read-out: Absolute IC50
Protocol: as §1, §2

H1373 = assay: Combination 4 day growth assay (Cell TiterGlo), H1373; format: cell-based; details: Homo sapiens, NCI-H1373, 96 h, single treatment, read-out: Absolute IC50
Protocol: (§3) Cell lines for this study are obtained from ATCC and grown under ATCC recommended conditions, except for LXFA-983L, which is obtained from Oncotest/Charles Rivers Laboratories, Wilmington, Mass. and D122-96, which is obtained from L. Eisenbach (Weizman Institute of Science, Rehovot, Israel)—both grown under recommended conditions. […] The proliferation assay is performed as a 4 day growth assay using Cell TiterGlo® as the readout. Briefly, cells are plated in 96-well cell culture plates and allowed to adhere overnight at 37° C. The following day, cells are treated with compounds, either single treatments or combination treatments. First, the testing compounds are serially diluted in DMSO, followed by dilution into media as a 5× concentration with 1% DMSO, and finally added to cells in media to dilute to 1×. The cells are incubated at 37° C. for 4 more days. At the end of the incubation period, Cell TiterGlo® reagent is mixed and added to the wells. After 10 minutes, the luminescence is read by a Perkin Elmer Envision instrument. Absolute IC50 values generated by a 4-parameter logistics model for the single and combination treatments are generated, followed by combination indexes for each combination treatment and cell line. The combination IC50 values are adjusted based on the total concentration of each compound when added together. […]

H23 = assay: Combination 4 day growth assay (Cell TiterGlo), H23; format: cell-based; details: Homo sapiens, NCI-H23, 96 h, single treatment, read-out: Absolute IC50
Protocol: as §1, §2

H1792 = assay: Combination 4 day growth assay (Cell TiterGlo), H1792; format: cell-based; details: Homo sapiens, NCI-H1792, 96 h, single treatment, read-out: Absolute IC50
Protocol: as §3

Kyse-410 = assay: Combination 4 day growth assay (Cell TiterGlo), KYSE-410; format: cell-based; details: Homo sapiens, single treatment, read-out: Absolute IC50
Protocol: as §3

SW756 = assay: Combination 4 day growth assay (Cell TiterGlo), SW756; format: cell-based; details: Homo sapiens, single treatment, read-out: Absolute IC50
Protocol: as §3

H2030 = assay: Combination 4 day growth assay (Cell TiterGlo), H2030; format: cell-based; details: Homo sapiens, NCI-H2030, 96 h, single treatment, read-out: Absolute IC50
Protocol: as §3

UM-UC-3 = assay: Combination 4 day growth assay (Cell TiterGlo), UM-UC-3; format: cell-based; details: Homo sapiens, UMUC3, 96 h, single treatment, read-out: Absolute IC50
Protocol: as §1, §2

LXFA-983L = assay: Combination 4 day growth assay (Cell TiterGlo), LXFA-983L; format: cell-based; details: 96 h, single treatment, read-out: Absolute IC50
Protocol: as §1, §2

H2122 = assay: Combination 4 day growth assay (Cell TiterGlo), H2122; format: cell-based; details: Homo sapiens, NCI-H2122, 96 h, single treatment, read-out: Absolute IC50
Protocol: as §1, §2

SW1573 = assay: Combination 4 day growth assay (Cell TiterGlo), SW1573; format: cell-based; details: Homo sapiens, 96 h, single treatment, read-out: Absolute IC50
Protocol: as §1, §2

H2122 xenograft = assay: Anti-tumor growth activity, lung cancer H2122 xenograft mouse model; format: in vivo; details: H2122 Lung; Abemaciclib 50 mg/kg QDx28
Protocol: To evaluate in vivo target inhibition and anti-tumor efficacy of a compound, Human lung cancer cells, H358 or H2122 are implanted into nude mice xenograft tumor models. Either H358 or H2122 cells (10×10^6 in a 1:1 Matrigel® mix, 0.2 mL total volume) are implanted by subcutaneous injection in hind leg of nude female mice (Harlan Laboratories). A total of 5 mice each group are used for efficacy study, and a total of 3-4 mice each group are used for target engagement and PD study. Treatment is initiated with oral administration (gavage) of a test compound or vehicle (20% Captisol®, 25 mM phosphate, pH 2.0 in 0.2 mL volume when the tumor size reaches approximately […]. Tumor growth and body weight are monitored over time to evaluate efficacy and signs of toxicity. Bidimensional measurements of tumors are performed twice a week and tumor volumes are calculated based on mid-axis length and mid-axis width. Tumor volume data are transformed to a log scale to equalize variance across time and treatment groups. The log volume data are analyzed with a two-way repeated measures analysis of variance by time and treatment using the mixed procedures in SAS software (version 8.2). The correlation model for the repeated measures is spatial power. Treated groups are compared to the control group at each time point. The mixed procedure is also used separately for each treatment group to calculate adjusted means and standard errors at each time point. Both analyses account for the autocorrelation within each animal. The adjusted means and standard errors are plotted for each treatment group versus time.
H2122 lung tumor cells (10×10^6) are implanted by subcutaneous injection in hind leg of nude female mice (Taconic Biosciences). A total of 5 mice each group are used for efficacy study.

SW837 xenograft = assay: Anti-tumor growth activity, SW837 colorectal xenograft; format: in vivo; details: Abemaciclib 50 mg/kg QDx28
SW1463 xenograft = assay: Anti-tumor growth activity, SW1463 colorectal xenograft; format: in vivo; details: Abemaciclib 50 mg/kg QDx28
MiaPaca-2 xenograft = assay: Anti-tumor growth activity, MiaPaca-2 pancreatic xenograft; format: in vivo; details: Abemaciclib 50 mg/kg QDx28
EL3187 (PDX) = assay: Anti-tumor growth activity, EL3187 lung PDX; format: in vivo; details: EL3187 Lung PDX; Erlotinib 25 mg/kg QDx28

CCN1CCN(Cc2ccc(Nc3ncc(F)c(-c4cc(F)c5nc(C)n(C(C)C)c5c4)n3)nc2)CC1 [Abemaciclib, abemaciclib]
IC50 (SW1463; 96 h): 0.328 µM | IC50 (Calu-1; 96 h): > 10 µM | IC50 (MIA Paca-2; 96 h): 0.755 µM | IC50 (H358): 1.23 µM | IC50 (SW837; 96 h): 3.59 µM | IC50 (D122-96): 5.05 µM | IC50 (H1373): > 10 µM | IC50 (H23): 4.97 µM | IC50 (H1792): 1.1 µM | IC50 (Kyse-410; 96 h): 3.01 µM | IC50 (SW756; 96 h): 4.98 µM | IC50 (H2030): 9.03 µM | IC50 (UM-UC-3): 1.72 µM | IC50 (LXFA-983L): > 10 µM | IC50 (H2122): 0.547 µM | IC50 (SW1573): 0.996 µM | Tumor Growth Inhibition (%) or Regression (−%) (H2122 xenograft): 79.3 and 79.1 | In Vivo Anti-Tumor Activities (SW837 xenograft): −2.13 | In Vivo Anti-Tumor Activities (SW1463 xenograft): 55.1 | In Vivo Anti-Tumor Activities (MiaPaca-2 xenograft): 46.88

C#Cc1cccc(Nc2ncnc3cc(OCCOC)c(OCCOC)cc23)c1 [Erlotinib, erlotinib]
IC50 (SW1463; SW1463, 96 h): 0.446 µM | IC50 (Calu-1; Calu-1, 96 h): > 10 µM | IC50 (MIA Paca-2; MIA PaCa-2, 96 h): > 10 µM | IC50 (H358): 0.247 µM | IC50 (SW837; SW837, 96 h): > 10 µM | IC50 (D122-96): > 10 µM | IC50 (H1373): > 10 µM | IC50 (H23): > 10 µM | IC50 (H1792): > 10 µM | IC50 (Kyse-410; KYSE-410, 96 h): 0.469 µM | IC50 (SW756; SW756, 96 h): > 10 µM | IC50 (H2030): 1.48 µM | IC50 (UM-UC-3): > 10 µM | IC50 (LXFA-983L; LXFA 983L): 2.82 µM | IC50 (H2122): 0.352 µM | IC50 (SW1573): > 10 µM | In Vivo Anti-Tumor Activities (EL3187 (PDX)): 7.8

— US10968214B2, “KRas G12C inhibitors” (Eli Lilly and Company, priority 2018, dated 2021)
